Results taken from ChEMBL document CHEMBL4196001, “Design, semisynthesis, α-glucosidase inhibitory, cytotoxic, and antibacterial activities of p-terphenyl derivatives” (Eur J Med Chem, 2018).
Values after ≈ are worked out from the molar mass of the structure shown. Active and inactive are the calls of the source. The rule behind the calls is not given here.

What was measured:
HeLa [1] = test: Cytotoxicity against human HeLa cells at 10 uM by SRB assay; type: functional, cell-based
A549 [2] = test: Cytotoxicity against human A549 cells at 10 uM by SRB assay; type: functional, cell-based
HepG2 [3] = test: Cytotoxicity against human HepG2 cells at 10 uM by SRB assay; type: functional, cell-based
[4] = Cytotoxicity against human Chang cells by SRB assay; type: cell-based
Alpha glucosidase [5] = molecular target: T1, Alpha glucosidase (Homo sapiens, UniProt O43451+P10253+P14410+Q2M2H8); test: Inhibition of human alpha-glucosidase expressed in Saccharomyces cerevisiae using p-nitrophenyl-alpha-D-glucopyranoside as substrate after 15 mins
HeLa [6] = test: Cytotoxicity against human HeLa cells by SRB assay; type: functional, cell-based
HepG2 [7] = test: Cytotoxicity against human HepG2 cells by SRB assay; type: functional, cell-based
A549 [8] = test: Cytotoxicity against human A549 cells by SRB assay; type: functional, cell-based
Staphylococcus aureus = test: Antibacterial activity against Staphylococcus aureus after 24 hrs by broth macrodilution method; type: functional
[9] = Cytotoxicity against human Chang cells at 10 uM by SRB assay; type: cell-based
Alpha glucosidase [10] = molecular target: T1, Alpha glucosidase; test: Inhibition of human alpha-glucosidase expressed in Saccharomyces cerevisiae at 10 uM using p-nitrophenyl-alpha-D-glucopyranoside as substrate after 15 mins by two-fold serial dilution method

Row | SMILES | Activity (HeLa [1]) | Activity (A549 [2]) | Activity (HepG2 [3]) | CC50 [4] [µM] | IC50 (Alpha glucosidase [5]) [µM] | IC50 (HeLa [6]) [µM] | IC50 (HepG2 [7]) [µM] | IC50 (A549 [8]) [µM] | MIC (Staphylococcus aureus) [µM] | Activity [9] | inhibition (Alpha glucosidase [10])
1 | COc1cc(-c2ccc(OCC(=O)O)cc2)c(OC)c(O)c1-c1ccc(O)cc1 | inactive | inactive | inactive | – | – | – | – | – | – | – | –
2 | COc1cc(-c2ccc(O)cc2)c(OC)c(O)c1-c1ccc(OCCBr)cc1 | inactive | inactive | inactive | 54.4 | 18 | – | – | – | – | – | –
3 | COc1cc(-c2ccc(OCC=C(C)C)cc2)c(OC)c(OCC=C(C)C)c1-c1ccc(O)cc1 | – | – | – | 7.34 | 53.1 | 3.37 | 5.26 | 3.36 | – | – | –
4 | COc1cc(-c2ccc(OC(c3ccccc3)c3ccccc3)cc2)c(OC)c(O)c1-c1ccc(O)cc1 | inactive | inactive | inactive | 22.3 | – | – | – | – | – | – | –
5 | CCCOc1c(OC)c(-c2ccc(O)cc2)cc(OC)c1-c1ccc(O)cc1 | inactive | inactive | inactive | 14.5 | 19.3 | – | – | – | 6.25 (≈ 2.38 µg/mL) | – | –
6 | COc1cc(-c2ccc(O)cc2)c(OC)c(OCCN2CCCC2)c1-c1ccc(O)cc1 | inactive | inactive | inactive | – | – | – | – | – | – | – | –
7 | COc1cc(-c2ccc(O)cc2)c(OC)c(OC(C)=O)c1-c1ccc(O)cc1 | inactive | inactive | inactive | – | – | – | – | – | – | Non-Toxic | –
8 | COc1cc(-c2ccc(OCC=C(C)C)cc2)c(OC)c(O)c1-c1ccc(OCC=C(C)C)cc1 | – | inactive | – | 31.1 | – | 2.76 | 4.1 | – | – | – | inactive
9 | COc1cc(-c2ccc(OCCBr)cc2)c(OC)c(O)c1-c1ccc(OCCBr)cc1 | inactive | inactive | inactive | – | – | – | – | – | – | Non-Toxic | inactive
10 | C#CCOc1ccc(-c2cc(OC)c(-c3ccc(OCC#C)cc3)c(OCC#C)c2OC)cc1 | inactive | inactive | inactive | – | – | – | – | – | – | Non-Toxic | inactive
11 | COc1cc(-c2ccc(OCCC(C)C)cc2)c(OC)c(O)c1-c1ccc(O)cc1 | inactive | inactive | inactive | – | 14.3 | – | – | – | – | Non-Toxic | –
12 | COc1cc(-c2ccc(O)cc2)c(OC)c(OC(=O)c2ccc(F)cc2)c1-c1ccc(O)cc1 | inactive | inactive | inactive | – | – | – | – | – | – | Non-Toxic | –
13 | COc1cc(-c2ccc(OCc3ccc(-c4ccccc4)cc3)cc2)c(OC)c(O)c1-c1ccc(O)cc1 | inactive | inactive | inactive | 12.7 | 12.2 | – | – | – | – | – | –
14 | COc1cc(-c2ccc(O)cc2)c(OC)c(OC(=O)c2ccco2)c1-c1ccc(O)cc1 | inactive | inactive | inactive | – | 35.4 | – | – | – | – | Non-Toxic | –
15 | C=CCOc1ccc(-c2cc(OC)c(-c3ccc(OCC=C)cc3)c(OCC=C)c2OC)cc1 | – | inactive | inactive | – | – | 10.1 | – | – | – | Non-Toxic | inactive
16 | COc1c(Cl)c(-c2ccc(O)cc2)c(OC)c(O)c1-c1ccc(O)cc1 | inactive | inactive | inactive | – | 31.3 | – | – | – | – | Non-Toxic | –
17 | COc1cc(-c2ccc(OCCBr)cc2)c(OC)c(O)c1-c1ccc(O)cc1 | inactive | inactive | inactive | 95.4 | 16.1 | – | – | – | – | – | –
18 | COc1cc(-c2ccc(O)cc2)c(OC)c(OCc2ccccc2)c1-c1ccc(O)cc1 | inactive | inactive | inactive | 17.1 | 19.1 | – | – | – | 6.25 (≈ 2.68 µg/mL) | – | –
19 | COc1cc(-c2ccc(O)cc2)c(OC)c(OCCBr)c1-c1ccc(O)cc1 | inactive | inactive | inactive | 39.1 | 18.8 | – | – | – | 6.25 (≈ 2.78 µg/mL) | – | –
20 | C=CCOc1ccc(-c2cc(OC)c(-c3ccc(OCC=C)cc3)c(O)c2OC)cc1 | inactive | inactive | inactive | – | – | – | – | – | – | Non-Toxic | inactive
21 | COc1cc(-c2ccc(O)cc2)c(OC)c(O)c1-c1ccc(O)c(CC=C(C)C)c1 | inactive | inactive | – | 0.91 | 25.7 | – | 2.74 | – | – | – | –
